In patent US11247990B1, “Bicyclic fused pyridine compounds as inhibitors of TAM kinases” (ARRAY BIOPHARMA INC., priority 2017, dated 2022):

What was measured:
Details in all cases: averaged IC50
[1] = target: GST-tagged recombinant human TYRO3 kinase domain (Homo sapiens (Human), UniProt Q06418); experiment: TYRO3 Enzyme Assay (LanthaScreen Eu Kinase Binding, TR-FRET)
Procedure, shortened: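 LanthaScreen Eu binding (tracer displacement) format read by TR-FRET after 60 min at 22 °C. Emission ratio converted to percent of control; IC50 taken where a 4-parameter logistic fit crosses 50 POC.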

[2] = target: His-tagged recombinant human AXL cytoplasmic domain (Homo sapiens (Human), UniProt P30530); experiment: AXL Enzyme Assay (LanthaScreen Eu Kinase Binding, TR-FRET)
Chain of His-tagged recombinant human AXL cytoplasmic domain (P30530 473-894): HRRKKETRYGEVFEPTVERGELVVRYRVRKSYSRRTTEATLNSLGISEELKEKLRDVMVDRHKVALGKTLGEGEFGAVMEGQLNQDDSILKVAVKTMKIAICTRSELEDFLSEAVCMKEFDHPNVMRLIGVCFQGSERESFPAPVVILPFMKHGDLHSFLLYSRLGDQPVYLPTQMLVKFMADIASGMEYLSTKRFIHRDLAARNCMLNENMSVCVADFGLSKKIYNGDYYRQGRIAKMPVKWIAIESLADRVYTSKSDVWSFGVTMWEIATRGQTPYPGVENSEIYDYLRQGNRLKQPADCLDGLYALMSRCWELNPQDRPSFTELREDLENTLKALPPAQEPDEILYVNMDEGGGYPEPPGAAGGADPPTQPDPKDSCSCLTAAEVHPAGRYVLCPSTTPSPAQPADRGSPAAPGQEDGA
Procedure, shortened: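 Compound displacement measured by TR-FRET after 60 min at 22 °C, using Eu-based LanthaScreen binding technology. Ratiometric emission converted to percent of control, fitted to a 4-parameter logistic curve, with IC50 at 50 POC.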

[3] = target: His-tagged recombinant human MER cytoplasmic domain (Homo sapiens (Human), UniProt Q12866); experiment: MER Enzyme Assay (LanthaScreen Eu Kinase Binding, TR-FRET)
Chain of His-tagged recombinant human MER cytoplasmic domain (Q12866 527-999): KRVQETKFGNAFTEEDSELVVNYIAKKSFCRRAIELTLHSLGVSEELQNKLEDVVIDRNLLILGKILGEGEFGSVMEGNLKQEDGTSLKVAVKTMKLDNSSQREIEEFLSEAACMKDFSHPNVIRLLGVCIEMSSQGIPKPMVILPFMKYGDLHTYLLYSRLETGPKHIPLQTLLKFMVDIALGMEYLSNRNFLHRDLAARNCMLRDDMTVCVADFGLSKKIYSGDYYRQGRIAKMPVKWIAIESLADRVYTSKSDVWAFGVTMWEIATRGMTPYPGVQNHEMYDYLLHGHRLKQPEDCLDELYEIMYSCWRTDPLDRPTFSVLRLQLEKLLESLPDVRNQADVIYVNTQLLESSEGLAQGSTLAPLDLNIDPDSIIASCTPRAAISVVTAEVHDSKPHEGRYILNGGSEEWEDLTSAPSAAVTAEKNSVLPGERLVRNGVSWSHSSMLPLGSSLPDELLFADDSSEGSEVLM
Procedure, shortened: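 Percent of control, derived from ratiometric TR-FRET emission, was fitted to a 4-parameter logistic curve and IC50 taken at 50 POC. Binding was read after 60 min at 22 °C using Eu-based LanthaScreen technology and recombinant His-tagged MER cytoplasmic domain.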

Chain of GST-tagged recombinant human TYRO3 kinase domain (Q06418 518-790): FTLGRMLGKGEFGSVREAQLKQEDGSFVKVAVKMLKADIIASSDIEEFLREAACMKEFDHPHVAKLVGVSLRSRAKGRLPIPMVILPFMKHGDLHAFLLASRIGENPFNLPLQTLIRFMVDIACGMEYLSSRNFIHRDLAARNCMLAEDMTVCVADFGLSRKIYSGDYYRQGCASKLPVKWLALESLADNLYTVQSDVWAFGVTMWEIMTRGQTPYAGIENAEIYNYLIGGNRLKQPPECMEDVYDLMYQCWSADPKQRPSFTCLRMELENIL

Compound | IC50 [1] | IC50 [2] | IC50 [3]
CCNc1cc2c(cn1)c(-c1cnn(C[C@@H](O)C(C)(C)O)c1)nn2[C@H]1CC[C@@H](Oc2ccc(F)cc2F)CC1 [Example 447, (R)-1-(4-(1-((1s,4S)-4-(2,4-difluorophenoxy)cyclohexyl)-6-(ethylamino)-1H-pyrazolo[4,3-c]pyridin-3-yl)-1H-pyrazol-1-yl)-3-methylbutane-2,3-diol] | 10 to 100 nM | < 10 nM | < 10 nM
CCNc1cc2c(cn1)c(-c1cnn(C[C@@H](O)C(C)(C)O)c1)nn2[C@H]1CC[C@@H](Oc2cccc(F)c2F)CC1 [Example 446, (R)-1-(4-(1-((1s,4S)-4-(2,3-difluorophenoxy)cyclohexyl)-6-(ethylamino)-1H-pyrazolo[4,3-c]pyridin-3-yl)-1H-pyrazol-1-yl)-3-methylbutane-2,3-diol] | < 10 nM | < 10 nM | < 10 nM
C#Cc1ncccc1OC1CCC(n2nc(-c3cnn(C)c3)c3cnc(NCC)cc32)CC1 (stereo not drawn) [Example 199, N-ethyl-1-((1s,4s)-4-((2-ethynylpyridin-3-yl)oxy)cyclohexyl)-3-(1-methyl-1H-pyrazol-4-yl)-1H-pyrazolo[4,3-c]pyridin-6-amine] | < 10 nM | < 10 nM | < 10 nM
CNc1cc2c(cn1)c(-c1cnn(C(C)(C)C#N)c1)nn2[C@H]1CC[C@@H](Oc2cccc(F)c2F)CC1 [Example 369, 2-(4-(1-((1s,4s)-4-(2,3-difluorophenoxy)cyclohexyl)-6-(methylamino)-1H-pyrazolo[4,3-c]pyridin-3-yl)-1H-pyrazol-1-yl)-2-methylpropanenitrile] | 10 to 100 nM | < 10 nM | < 10 nM
CCNc1cc2c(cn1)c(-c1cnn(C)c1)nn2[C@H]1CC[C@@H](Oc2cccnc2C#N)CC1 [Example 188, 3-(((1s,4s)-4-(6-(ethylamino)-3-(1-methyl-1H-pyrazol-4-yl)-1H-pyrazolo[4,3-c]pyridin-1-yl)cyclohexyl)oxy)picolinonitrile] | < 10 nM | < 10 nM | < 10 nM
CCNc1cc2c(cn1)c(N1CC[C@H](O)C1)nn2[C@H]1CC[C@@H](Oc2nccc(C(F)(F)F)c2F)CC1 [Example 336, (S)-1-(6-(ethylamino)-1-((1s,4R)-4-((3-fluoro-4-(trifluoromethyl)pyridin-2-yl)oxy)cyclohexyl)-1H-pyrazolo[4,3-c]pyridin-3-yl)pyrrolidin-3-ol] | 10 to 100 nM | < 10 nM | < 10 nM
CNc1cc2c(cn1)c(-c1cnn(C(C)(C)C#N)c1)nn2[C@H]1CC[C@@H](Oc2nccnc2C)CC1 [Example 212, 2-methyl-2-(4-(6-(methylamino)-1-((1s,4s)-4-((3-methylpyrazin-2-yl)oxy)cyclohexyl)-1H-pyrazolo[4,3-c]pyridin-3-yl)-1H-pyrazol-1-yl)propanenitrile] | 10 to 100 nM | < 10 nM | < 10 nM
CCNc1cc2c(cn1)c(-c1cnn(CC(C)(C)O)c1)nn2[C@H]1CC[C@@H](Oc2nccc(C(F)(F)F)c2F)CC1 [Example 300, 1-(4-(6-(ethylamino)-1-((1s,4s)-4-((3-fluoro-4-(trifluoromethyl)pyridin-2-yl)oxy)cyclohexyl)-1H-pyrazolo[4,3-c]pyridin-3-yl)-1H-pyrazol-1-yl)-2-methylpropan-2-ol] | 10 to 100 nM | < 10 nM | < 10 nM
CCNc1cc2c(cn1)c(-c1ncco1)nn2[C@H]1CC[C@@H](Oc2ccc(=O)n(C)n2)CC1 [Example 81, 6-(((1s,4s)-4-(6-(ethylamino)-3-(oxazol-2-yl)-1H-pyrazolo[4,3-c]pyridin-1-yl)cyclohexyl)oxy)-2-methylpyridazin-3(2H)-one bis(2,2,2-trifluoroacetate)] | 1000 to 10000 nM | 1000 to 10000 nM | 1000 to 10000 nM
CNc1cc2c(cn1)c(-c1cnn(C)c1)nn2[C@H]1CC[C@@H](Oc2cc(Cl)cnc2C#N)CC1 [Example 175, 5-chloro-3-(((1s,4s)-4-(3-(1-methyl-1H-pyrazol-4-yl)-6-(methylamino)-1H-pyrazolo[4,3-c]pyridin-1-yl)cyclohexyl)oxy)picolinonitrile] | 10 to 100 nM | < 10 nM | < 10 nM
CCNc1cc2c(cn1)c(-c1cnn(C[C@H](O)C(C)(C)O)c1)nn2[C@H]1CC[C@@H](Oc2ccc(F)cc2F)CC1 [Example 448, (S)-1-(4-(1-((1s,4S)-4-(2,4-difIuorophenoxy)cyclohexyl)-6-(ethylamino)-1H pyrazolo[4,3-c]pyridin-3-yl)-1H-pyrazol-1-yl)-3-methylbutane-2,3-diol] | 10 to 100 nM | < 10 nM | < 10 nM
CCNc1cc2c(cn1)c(C1CCN(C)CC1)nn2[C@H]1CC[C@@H](Oc2nccc(C(F)(F)F)c2F)CC1 [Example 316, N-ethyl-1-((1s,4s)-4-((3-fluoro-4-(trifluoromethyl)pyridin-2-yl)oxy)cyclohexyl)-3-(1-methylpiperidin-4-yl)-1H-pyrazolo[4,3-c]pyridin-6-amine] | 10 to 100 nM | < 10 nM | < 10 nM
CCNc1cc2c(cn1)c(-c1cnn(CCN3CCN(C)CC3)c1)nn2[C@H]1CC[C@@H](Oc2nccc(C(F)(F)F)c2F)CC1 [Example 496] | < 10 nM | < 10 nM | < 10 nM
CCNc1cc2c(cn1)c([C@H]1CC[C@@H](N(C)C)CC1)nn2[C@H]1CC[C@@H](Oc2nccc(C(F)(F)F)c2F)CC1 [Example 351, 3-((1s,4S)-4-(dimethylamino)cyclohexyl)-N-ethyl-1-((1s,4S)-4-((3-fluoro-4-(trifluoromethyl)pyridin-2-yl)oxy)cyclohexyl)-1H-pyrazolo[4,3-c]pyridin-6-amine] | < 10 nM | < 10 nM | < 10 nM
CCNc1cc2c(cn1)c(-c1cnn(C[C@@H](O)CO)c1)nn2[C@H]1CC[C@@H](Oc2ccc(F)cc2Cl)CC1 [Example 436, (R)-3-(4-(1-((1s,4S)-4-(2-chloro-4-fluorophenoxy)cyclohexyl)-6-(ethylamino)-1H-pyrazolo[4,3-c]pyridin-3-yl)-1H-pyrazol-1-yl)propane-1,2-diol] | 10 to 100 nM | < 10 nM | < 10 nM
CCNc1cc2c(cn1)c(C1CCNCC1)nn2[C@H]1CC[C@@H](Oc2nccc(C(F)(F)F)c2F)CC1 [Example 319, N-ethyl-1-((1s,4s)-4-((3-fluoro-4-(trifluoromethyl)pyridin-2-yl)oxy)cyclohexyl)-3-(piperidin-4-yl)-1H-pyrazolo[4,3-c]pyridin-6-amine] | < 10 nM | < 10 nM | < 10 nM
CCNc1cc2c(cn1)c(-c1cnn(C[C@@H](O)CO)c1)nn2[C@H]1CC[C@@H](Oc2cccc(F)c2F)CC1 [Example 429, (R)-3-(4-(1-((1s,4S)-4-(2,3-difluorophenoxy)cyclohexyl)-6-(ethylamino)-1H-pyrazolo[4,3-c]pyridin-3-yl)-1H-pyrazol-1-yl)propane-1,2-diol] | < 10 nM | < 10 nM | < 10 nM
CCNc1cc2c(cn1)c(-c1cnn(C(C)(C)C#N)c1)nn2[C@H]1CC[C@@H](Oc2nccc(C(F)(F)F)c2F)CC1 [Example 260, 2-(4-(6-(ethylamino)-1-((1s,4s)-4-((3-fluoro-4-(trifluoromethyl)pyridin-2-yl)oxy)cyclohexyl)-1H-pyrazolo[4,3-c]pyridin-3-yl)-1H-pyrazol-1-yl)-2-methylpropanenitrile] | 100 to 1000 nM | < 10 nM | < 10 nM
CCNc1cc2c(cn1)c(-c1cnn(C)c1)nn2[C@H]1CC[C@@H](Oc2nccc(C#N)c2F)CC1 [Example 352, 2-(((1s,4s)-4-(6-(ethylamino)-3-(1-methyl-1H-pyrazol-4-yl)-1H-pyrazolo[4,3-c]pyridin-1-yl)cyclohexyl)oxy)-3-fluoroisonicotinonitrile] | 10 to 100 nM | < 10 nM | < 10 nM
CCNc1cc2c(cn1)c(-c1cnn(C[C@H](O)C(C)(C)O)c1)nn2[C@H]1CC[C@@H](Oc2ccccc2F)CC1 [Example 440, (S)-1-(4-(6-(ethylamino)-1-((1s,4R)-4-(2-fluorophenoxy)cyclohexyl)-1H-pyrazolo[4,3-c]pyridin-3-yl)-1H-pyrazol-1-yl)-3-methylbutane-2,3-dioI] | 10 to 100 nM | < 10 nM | < 10 nM
CCNc1cc2c(cn1)c(-c1cnn(C(CO)CO)c1)nn2[C@H]1CC[C@@H](Oc2cccnc2C(F)(F)F)CC1 [Example 207, 2-(4-(6-(ethylamino)-1-((1s,4s)-4-((2-(trifluoromethyl)pyridin-3-yl)oxy)cyclohexyl)-1H-pyrazolo[4,3-c]pyridin-3-yl)-1H-pyrazol-1-yl)propane-1,3-diol] | < 10 nM | < 10 nM | < 10 nM
CCNc1cc2c(cn1)c(N1CC[C@H](NC)C1)nn2[C@H]1CC[C@@H](Oc2cccc(C(F)(F)F)c2F)CC1 [Example 491, N-ethyl-1-((1s,4R)-4-(2-fluoro-3-(trifluoromethyl)phenoxy)cyclohexyl)-3-((S)-3-(methylamino)pyrrolidin-1-yl)-1H-pyrazolo[4,3-c]pyridin-6-amine] | 10 to 100 nM | < 10 nM | < 10 nM
CCNc1cc2c(cn1)c(C1CCN(C)C1)nn2[C@H]1CC[C@@H](Oc2nccc(C(F)(F)F)c2F)CC1 (stereo partly drawn) [Example 325, N-ethyl-1-((1s,4s)-4-((3-fluoro-4-(trifluoromethyl)pyridin-2-yl)oxy)cyclohexyl)-3-(1-methylpyrrolidin-3-yl)-1H-pyrazolo[4,3-c]pyridin-6-amine] | 10 to 100 nM | < 10 nM | < 10 nM
